# In US5242945A, “Tetronic and thiotetronic acid derivatives as phospholipase A2 inhibitors” (American Home Products Corporation, priority 1991, dated 1993):
# Tests used:
# [1] = test system: purified PLA2, from the diamond back cotton mouth snake (A. piscivorus piscivorus); experiment: in vivo PLA2 murine paw edema assay; set-up: species or system A. piscivorus piscivorus PLA2 in CD-1 mice
# Protocol: The ability of the compounds of the invention to inhibit paw edema induced by the exogenous administration of PLA2 is measured in the in vivo PLA2 murine paw edema assay.
# Non-fasted, male CD-1 mice (8 weeks old; 31-36 grams) are placed in plastic boxes in groups of six. The right hind paw volume is measured using mercury plethysmography (zero time). Compounds are dosed orally (0.5 mL of 0.5% Tween-80) 1 or 3 hours prior to PLA2 injection or intravenously (0.2 mL in 0.3% dimethylsulfoxide/saline) 3 minutes prior to PLA2 injection. A solution of purified PLA2, from the diamond back cotton mouth snake (A. piscivorus piscivorus) is prepared in saline at a concentration of 6 μg/mL. Fifty (50) μL (0.3 μg) of this PLA2 solution is injected subcutaneously into the right hind paw with a plastic 1 mL plastic syringe (27 gauge, 1" needle). Paw volume of the injected paw is measured again at 10 minutes, 30 minutes and 60 minutes after PLA2 injection. Animals are euthanized with CO2 at the completion of the study.
# The paw edema is calculated by subtracting the zero time volume from the volume recorded at each time period. Mean paw edema for each treatment group is then calculated and expressed as (μL±S.E.). Drug effects are expressed as a percent change from control (vehicle) values. Statistical significance is determined by a one-way analysis of variance with LSD comparison to control (p<0.05). ED50 's are determined using […].
# AA-induced ear edema = experiment: arachidonic acid (AA)-induced murine ear edema assay; type: in vivo, mouse (Swiss Webster); conditions: for ED50: Mus musculus, 1 h, oral
# TPA-induced ear edema = experiment: 12-o-tetradecanoylphorbol acetate (TPA)-induced murine ear edema assay; type: in vivo, mouse (Swiss Webster); conditions: oral, TPA-induced
# Protocol: The ability of the compounds of the invention to inhibit inflammatory responses is examined in the in vivo arachidonic acid (AA)/12-o-tetradecanoylphorbol acetate (TPA)-induced murine ear edema assay.
# Swiss Webster female mice (Buckshire), approximately 8 weeks old are placed into plastic boxes in groups of six. Eight groups of mice receive AA topically on the right ear, and another 8 groups receive TPA topically on the right ear. AA and TPA are dissolved in acetone at concentrations of 100 mg/ml and 100 μg/ml respectively. The phlogistics are applied to the right ear by the means of an automatic pipet. Volumes of 10 μl are applied to the inner and outer surfaces of the ear. Each mouse receives either 2 mg/ear AA or 2 μg/ear TPA. The left ear (control) receives acetone delivered in the same manner. Topical and subcutaneous dosing regimens are as follows 1) drugs are given 30 minutes prior to AA treatment and 2) drugs are given 30 minutes after treatment with TPA.
# Measurements are taken with Oditest calipers, 0-10 mm with 0.01 graduations. The right and left ears are measured after 1 hr AA-induced inflammation and 4 hours after TPA-induced inflammation.
# The difference between right and left ear thickness is calculated and the significance is determined by a one way analysis of variance with Dunnett's comparisons to control (P=0.05). Drug effects are expressed as a percent change from control values: [formula]
# [2] = test system: lipoxygenase (LTB4 or 5HETE synthesis); experiment: inhibition of LTB4 and 5-HETE synthesis by rat glycogen-elicited polymorphonuclear leukocytes; type: cell-based, rat (female Wistar); conditions: Leukocyte; at 10 μM; rat PMN; + with * denotes potentiation; read-out: % Inhibition LTB4
# Source text: This is especially true with respect to 5,12-diHETE, which is also denoted as LTB4 [see Ford-Hitchinson, J. Roy. Soc. Med., 74, 831 (1981)]. Compounds which inhibit the PLA2 -mediated release of arachidonic acid thereby effectively prevent the oxidation of arachidonic acid to the various leukotriene products via the lipoxygenase cascade. Accordingly, the specificity of action of PLA2 inhibitors can be determined by the activity of test compounds in this assay, which measures the ability of compounds to inhibit the synthesis of LTB4 and 5-HETE by rat glycogen-elicited polymorphonuclear leukocytes (PMN) in the presence of exogenous substrate.
# (§1) Rat polymorphonuclear leukocytes (PMNs) are obtained from female Wistar rats (150-200 g) which receive an injection of 6% glycogen (10 ml i.p.). Rats are sacrificed 18-24 hours post injection by CO2 asphyxiation and the elicited cells are harvested by peritoneal lavage using physiological saline (0.9% NaCl). The exudate is centrifuged at 400 xg for 10 minutes. The supernatant fluid is discarded and the cell pellet is resuspended to a concentration of 2.0×10^7 cells/mL in HBSS containing Ca^++ and Mg^++ and 10 μM L-cysteine.
# (§2) To 1 mL aliquots of cell suspension, test drugs or vehicle are added, then preincubated at 37° C. for 10 minutes. A23187 (1 μM), [^3 H]-AA (3.0 μCi/mL) and unlabeled AA (1 μM) are then added and the samples are further incubated for 10 minutes. The reaction is terminated by centrifugation and pelleting cells. Supernatants are then analyzed by HPLC analysis on a 15 cm×4.6 mm ID supelcosil LC-18 (Supelco)(3M) column, using a two solvent system at a flow rate of 1.4 mL total flow as follows:
# Injections: 140 μL of each supernatant is injected directly onto column and ^3 H arachidonic acid metabolites are monitored using an on-line radioactivity detector (Ramona, IN/US, Fairfield, N.J.).
# Co-chromatography with standard [^3 H] leukotriene B4 (LTB4) in medium of stimulated PMN exposed to drug is compared to that found in medium of stimulated cells exposed to no drug, generating percent inhibition.
# Results are expressed as percent inhibition at a given compound dose or as an IC50 value.
# [3] = test system: cyclooxygenase (PGE2 or TxB2 synthesis); experiment: inhibition of synthesis of cyclooxygenase products PGE2 and TxB2 by rat polymorphonuclear leukocytes; type: cell-based, rat (female Wistar); conditions: Leukocyte; at 10 μM; rat PMN; + with * denotes potentiation; read-out: % Inhibition TxB2
# Protocol: as §1, §2
# In this assay, the procedure of Example 58 is carried out as described. However, in order to determine cyclooxygenase activity, the samples are co-chromatographed with authentic reference [^3 H]-TxB2 or [^3 H]-PGE2.
# The results are calculated as in Example 58 and presented below: […]
# human platelet PLA2 = target: T1, human platelet PLA2 (Homo sapiens, UniProt P14555); experiment: in vitro isolated phospholipase A2 assay, human platelet PLA2; type: biochemical; conditions: at 10 μM; + values given without explanation; read-out: % Inhibition HP (human platelet)
# T1 construct: platelet acid extract PLA2; from tissue; host or cells: human platelets, semipurified acid extract
# T1 sequence (P14555 21-144): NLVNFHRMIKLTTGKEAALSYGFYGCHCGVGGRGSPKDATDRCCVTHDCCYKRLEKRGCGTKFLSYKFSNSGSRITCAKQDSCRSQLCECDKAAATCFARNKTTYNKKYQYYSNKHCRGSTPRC
# Procedure, shortened: (§3)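 PLA2 from semipurified human platelet acid extract or purified human synovial fluid, preincubated 30 min at room temperature with compound. ³H-arachidonate-labelled E. coli substrate then added in Tris-HCl pH 7.5, with enzyme giving about 12% hydrolysis. Reaction ran 10 min at 37° C; released arachidonic acid recovered on NH2 columns and measured by β-counting.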
# [4] = target: T2, human synovial fluid PLA2 (Homo sapiens, UniProt P14555); experiment: in vitro isolated phospholipase A2 assay, human synovial fluid PLA2; type: biochemical; conditions: for IC50: Table IV, read-out: IC50 HSF (human synovial fluid); for inhibition at 10 µM: + values given without explanation, read-out: % Inhibition HSF (human synovial fluid)
# T2 construct: Purified human synovial fluid; from tissue; host or cells: human synovial fluid
# T2 sequence (P14555 21-144): T1 sequence (P14555 21-144)
# Procedure, shortened: as §3
# carrageenan paw edema = experiment: rat carrageenan paw edema assay; type: in vivo, rat (Sprague-Dawley); conditions: 50 mg/kg peroral
# Protocol: The compounds of the invention are further tested in the rat carrageenan paw edema assay to determine their ability to inhibit the acute inflammatory response.
# 140-180 g Male Sprague-Dawley rats, in groups of 6 animals are injected subcutaneously in the right paw with 0.1 mL of 1% carrageenan at zero time. Mercury plethysmographic readings (mL) of the paw are made at zero time and 3 hours later. Test compounds are suspended or dissolved in 0.5% methylcellulose and given perorally 1 hour prior to carrageenan administration.
# The increase in paw volume (edema in mL) produced by the carrageenan is measured. Paw edema is calculated (3 hour volume minus zero time volume), and percent inhibition of edema is determined. Unpaired Student's t-test is used to determine statistical significance.
# [5] = test system: lipoxygenase and/or cyclooxygenase pathways of arachidonic acid metabolism; experiment: in vivo murine zymosan peritonitis assay; set-up: species or system mouse (CD-1)
# Protocol: The compounds of the invention are evaluated for their ability to inhibit the lipoxygenase and/or cyclooxygenase pathways of arachidonic acid metabolism in the in vivo murine zymosan peritonitis assay.
# Male CD-1 mice (8 weeks old) are placed in plastic boxes in groups of six. Animals are injected with 1 mL i.p. of either 1% zymosan in pyrogen free 0.9% saline or saline (unstimulated control). Compounds are dosed orally 1 hour prior to zymosan injection. Twenty minutes after zymosan injection, the mice are asphyxiated by CO2 inhalation and the peritoneal cavity is lavaged with 2 mL ice cold Hanks Balanced Salt Solution (HBSS) without CaCl2, MgSO4. 7H2 O and MgCl2.6H2 O. Peritoneal lavage fluid from each mouse is removed by syringe and placed in 5 mL plastic test tubes put on ice and volume is noted. Preparation of samples for evaluation by ELISA is as follows: Samples are centrifuged at 800 xg for 15 minutes; 1 mL of the supernatant is added to 8 mL ice cold methanol and kept at -70° C. overnight to precipitate protein; and samples are then centrifuged at 800 xg for 15 minutes, followed by a drying procedure in a Savant speed vac concentrator. The samples are reconstituted with 1 mL ice cold ELISA buffer and stored at -70° C. until assayed. The assay for eicosanoids (LTC4 and 6-keto-PGF1α) is performed according to conventional ELISA procedures.
# Compounds to be tested orally are suspended in 0.5% Tween 80. Compounds to be tested intraperitoneally are suspended in 0.5% methylcellulose in 0.9% saline.
# The total metabolite level in lavage fluid/mouse is calculated and the significance is determined by a one-way analysis of variance with LSD comparisons to control (p≤0.05). Drug effects are expressed as a percent change from control values.
SMILES,ED50 (AA-induced ear edema) [mg/kg],inhibition at 10 µM [2] [%],inhibition at 10 µM [3] [%],inhibition at 10 µM (human platelet PLA2) [%],IC50 [4] [nM],inhibition at 10 µM [4] [%],% Change in Edema 10 min ([1]; 10 mg/kg i.v.) [%],% Change in Edema 30 min ([1]; 10 mg/kg i.v.),% Change in Edema 60 min ([1]; 10 mg/kg i.v.),% Change in Edema 10 min ([1]; 100 mg/kg p.o.) [%],% Change in Edema 30 min ([1]; 100 mg/kg p.o.) [%],% Change in Edema 60 min ([1]; 100 mg/kg p.o.) [%],% Inhibition (carrageenan paw edema) [%],further results
"NC1=NN(c2cccc(C(F)(F)F)c2)CC1 [BW 755c, reference compound]",65,–,–,–,–,–,–,–,–,–,–,–,–,"ED50 at +10 min. ([1]; p.o., at +10 min): 50 mg/kg; ED50 (TPA-induced ear edema; Mus musculus, 4 h, read-out: Oral ED50 (TPA)): 88 mg/kg"
"O=C(/C=C/c1ccc(Cl)cc1)C1=C(O)COC1=O [Example 7, (E)-4-Hydroxy-3-(3-(4-chlorophenyl)-1-oxo-2-propenyl)-2(5H)-furanone]",–,13,18,0,1800,98,-19,+39%,+15%,-24,-4,-9,47,–
"O=C(/C=C/c1cccc([N+](=O)[O-])c1)C1=C(O)COC1=O [Example 12, (E)-4-Hydroxy-3-(3-(3-nitrophenyl)-1-oxo-2-propenyl)-2 (5H)-furanone]",–,5,9,11,2000,82,-11,-19%,+24%,-27,-33,-2,30,–
O=C1CCN(c2ccccc2)N1 [Phenidone],85,–,–,–,–,–,–,–,–,–,–,–,–,–
COc1ccc2c(c1)c(CC(=O)O)c(C)n2C(=O)c1ccc(Cl)cc1 [indomethacin],–,–,–,–,–,–,–,–,–,–,–,–,–,% Inhibition LTC4 ([5]; 10 mg/kg p.o.): +25%; ED50 LTC4 ([5]; p.o.): Not Active; Oral ED50 (AA) (AA-induced ear edema): inactive at 10; Oral ED50 (TPA) (TPA-induced ear edema): inactive at 10
